Converted amounts (≈) assume the structure as drawn. “And” between values parts separate entries of the source, which are not always exact repeats. Equal values may be shown once. “Also recorded” adds a separate entry of the source. Read-outs that look alike come from different tables or passages of the source.
Tests used:
Mtb H37Rv = experiment: microbe, parasite or virus in culture; format: cell-based; conditions: Mycobacterium tuberculosis
Mtb HadAB = Mtb HadAB (Mycobacterium tuberculosis, UniProt I6WYY7+P9WFK1); experiment: biochemical; conditions: trans-2-C16:1-CoA 60 μM, mean ± SD of duplicate assays
Mtb H37Rv mc^26206 = experiment: microbe, parasite or virus in culture; format: cell-based; conditions: Mycobacterium tuberculosis, read-out: MIC Mtb WT
Mtb = format: cell-based, Mycobacterium tuberculosis
[1] = test system: mycolic acid biosynthesis in Mtb H37Rv mc^26206; format: cell-based; conditions: 3× MIC, 24 h
Mtb HadBC = format: biochemical; conditions: compound 50 μM, HadBC 130 nM, trans-2-C16:1-CoA 25 μM
BCG_2231 (DlaT, Rv2215) = BCG_2231 (DlaT, Rv2215) (Mycobacterium bovis, UniProt P65634); experiment: biochemical; format: binding, Mycobacterium bovis BCG
[2] = target: HadA, HadB, BCG_0547c (HadD) (Mycobacterium bovis BCG, UniProt I6WYY7+P9WFK1); experiment: biochemical; format: binding; conditions: for competition from the bead matrices, HadA, HadB and HadD: at 0.49 μM, n = 3
HepG2 = HepG2 cytotoxicity; conditions: Homo sapiens
[3] = target: T1, BCG_0628c (lpqN, Rv0583c) (Mycobacterium tuberculosis, UniProt O53780); experiment: biochemical; format: binding, Mycobacterium bovis BCG
T1 sequence (O53780 20-228): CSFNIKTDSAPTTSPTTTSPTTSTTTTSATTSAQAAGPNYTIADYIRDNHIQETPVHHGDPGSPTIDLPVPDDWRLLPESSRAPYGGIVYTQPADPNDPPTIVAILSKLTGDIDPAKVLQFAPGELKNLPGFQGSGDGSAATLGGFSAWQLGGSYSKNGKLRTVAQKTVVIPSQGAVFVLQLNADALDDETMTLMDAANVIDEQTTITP

Mtb H37RvMA = experiment: microbe, parasite or virus in culture; format: cell-based; conditions: Middlebrook 7H9/glycerol/ADC/tween-80
[4] = HepG2, read-out: HepG2 IC50 (galactose)
[5] = HepG2, read-out: HepG2 IC50 (glucose)

With O=c1[nH]nc(CCc2cn(-c3ccc(Br)cc3)nc2-c2ccc(Cl)cc2)o1 [Compound 12] the MIC (Mtb H37Rv; read-out: Mtb MIC) was 19 µM (≈ 8.47 µg/mL), the IC50 (Mtb HadAB; HadAB IC50, HadAB 22 nM) was 4240 nM and 4200 nM and the MIC (Mtb H37Rv mc^26206) was 3.12 µM (≈ 1.39 µg/mL).

With CS(=O)(=O)NC(=O)CCc1cn(-c2ccc(Cl)cc2)nc1-c1ccc(C#CCN)cc1 [Compound 4] the “Mtb pMIC99” value (Mtb) was 5.4.

In the case of CS(=O)(=O)c1nnc(Cc2cn(-c3ccc(Cl)cc3)nc2-c2ccncc2)o1 [Compound 13], the “inhibition of biosynthesis of mycolic acids” value [1] is reported as 0–49%, the MIC (Mtb H37Rv; read-out: Mtb MIC) is reported as 62.5 µM (≈ 26 µg/mL) and the “HadBC % inhibition at 50 μM” value (Mtb HadBC) is reported as 37±5%. It also gave an IC50 (Mtb HadAB; HadAB IC50, HadAB 22 nM) of 102000 ± 17000 nM and an MIC (Mtb H37Rv mc^26206) of 3.75 µM (≈ 1.56 µg/mL).

For O=C(O)CCc1cn(-c2ccc(Br)cc2)nc1-c1ccc(Cl)cc1 [Compound 10], the MIC (Mtb H37Rv; read-out: Mtb MIC) was over 50 µM, the “HadBC % inhibition at 50 μM” value (Mtb HadBC) was “No inhibition” and the IC50 (Mtb HadAB; HadAB IC50, HadAB 22 nM) was 3300 ± 1700 nM. For the same compound, the MIC (Mtb H37Rv mc^26206) was 1.5 µM (≈ 0.609 µg/mL).

Compound CS(=O)(=O)NC(=O)NCc1cc(-c2ccc(Br)cc2)oc1-c1ccncc1 [Compound 14] has an IC50 (Mtb HadAB; HadAB IC50, HadAB 22 nM) of 20 ± 10 nM and an MIC (Mtb H37Rv mc^26206) of under 0.243 µM.

With CCc1c(COC(=O)NS(C)(=O)=O)c(-c2ccc(Cl)cc2)nn1-c1ccc(Cl)cc1 [Compound 15] the MIC (Mtb H37Rv; read-out: Mtb MIC) was over 50 µM, the “HadBC % inhibition at 50 μM” value (Mtb HadBC) was “No inhibition” and the IC50 (Mtb HadAB; HadAB IC50, HadAB 22 nM) was 28000 nM. It also gave an MIC (Mtb H37Rv mc^26206) of 3.9 µM (≈ 1.83 µg/mL).

Compound CS(=O)(=O)NC(=O)CCc1cn(-c2ccc(Cl)cc2)nc1-c1ccc(Cl)cc1 [Compound 2] has an MIC (Mtb H37Rv; read-out: Mtb MIC) of 4.7 µM (≈ 2.06 µg/mL), an MIC (Mtb H37Rv; read-out: Mtb MIC (Middlebrook 7H9/DPCC/casitone/Tx)) of 0.8 µM (≈ 0.351 µg/mL) and an MIC (Mtb H37Rv; read-out: Mtb MIC (Middlebrook 7H9/DPPC/cholesterol/BSA/Tx)) of 4.7 µM (≈ 2.06 µg/mL). The MIC (Mtb H37Rv; read-out: Mtb MIC (Middlebrook 7H9/casitone/Tx)) was 0.6 µM (≈ 0.263 µg/mL), the MIC (Mtb H37Rv; read-out: Mtb MIC (Middlebrook 7H9/glucose/BSA/Tx)) was 4.7 µM (≈ 2.06 µg/mL) and the Kd (BCG_2231 (DlaT, Rv2215)) was 6600 nM. For the same compound, the IC50 [2] was under 490 nM, the “competition from the bead matrices, HadA, HadB and HadD” value [2] was 56–62% and the “HadBC % inhibition at 50 μM” value (Mtb HadBC) was “did not inhibit; also recorded: No inhibition”. For the same compound, the IC50 (Mtb HadAB; HadAB IC50, HadAB 22 nM) was 130 ± 20 nM, the solubility (physchem) was 100 µM (≈ 43.8 µg/mL) and the “Mtb pMIC99” value (Mtb) was 5.5. The IC50 (HepG2; [4]) was over 50000 nM, the IC50 (HepG2; [5]) was over 50000 nM and the MIC (Mtb H37Rv mc^26206) was under 0.625 µM.

Work on CS(=O)(=O)NC(=O)CCc1cn(-c2ccc(Br)cc2)nc1-c1ccc(Cl)cc1 [Compound 9] yielded an IC50 (Mtb HadAB; HadAB 22 nM, read-out: HadAB IC50) of 30 ± 10 nM.

With CS(=O)(=O)NC(=O)CCc1cn(-c2ccc(Br)cc2)nc1-c1ccncc1 [Compound 1] the Kd (BCG_2231 (DlaT, Rv2215)) was 1000 nM, the IC50 [2] was under 160 nM and the “competition from the bead matrices, HadA, HadB and HadD” value [2] was 91–92%. The IC50 (Mtb HadAB; HadAB IC50, HadAB 22 nM) was 100 ± 10 nM, the solubility (physchem) was 190 µM (≈ 85.4 µg/mL) and the “Mtb pMIC99” value (Mtb) was 6.2. For the same compound, the Kd [3] was 1800 nM, the “Compound 1 MIC, H37RvMA (WT reference strain)” value (Mtb H37RvMA) was 1.9 µM and the MIC (Mtb H37RvMA; Mycobacterium tuberculosis, H37RVMA, read-out: Compound 1 MIC, H37RvMA (WT reference strain)) was 1.9 µM (≈ 0.854 µg/mL). For the same compound, the IC50 (HepG2; [4]) was over 50000 nM and the IC50 (HepG2; [5]) was over 50000 nM.

With CS(=O)(=O)NC(=O)NCc1cn(-c2ccc(C(F)(F)F)nc2)nc1-c1ccncc1 [Compound 11] the IC50 (Mtb HadAB; HadAB IC50, HadAB 22 nM) was 62 nM and 60 nM and the MIC (Mtb H37Rv mc^26206) was 0.625 µM (≈ 0.275 µg/mL).

— paper PMC9673142, “1,3-Diarylpyrazolyl-acylsulfonamides Target HadAB/BC Complex in Mycobacterium tuberculosis” (ACS Infectious Diseases, 2022)
